Source: US11629201B2, “PSMA-binding agents and uses thereof” (ITM Isotope Technologies Munich SE, priority 2017, dated 2023)
Values joined by “and” are separate entries in the source; they are usually repeats but may differ in a detail not shown here. Equal values may be shown once.

What was measured:
[1] = test system: mouse plasma proteins; experiment: Ultrafiltration assay, binding to mouse plasma proteins; assay type: in vitro ADME
Description: Filter Assay. […] In addition, the radioligands were diluted in PBS (buffer solution without proteins) as a control experiment. Aliquots of the solutions were loaded onto an ultrafiltration device and centrifuged. The filtered activity was measured with a γ-counter and used for calculating the plasma protein-bound activity (retained on the filter membrane) as the percentage of total added activity. […] Statistical analysis (one-way ANOVA with Bonferroni's multiple comparison post-test) was performed using GraphPad Prism software, version 7. A p-value of <0.05 was considered statistically significant.

[2] = test system: PSMA-positive PC-3 PIP cells; experiment: Cell uptake and internalization in PSMA-positive PC-3 PIP cells; assay type: cell-based
[3] = test system: human plasma proteins; experiment: Ultrafiltration assay, binding to human plasma proteins; conditions: human plasma, ultrafiltration
Description: Therefore, the compounds were labeled with ^177Lu at a specific activity of 50 MBq/nmol and incubated in human plasma samples or PBS at room temperature. The free and plasma-bound fractions were separated using a centrifree ultrafiltration device (4104 centrifugal filter units [Millipore]; 30000 Da nominal molecular weight limit, methylcellulose micropartition membranes). The incubated solution was loaded to the ultrafiltration device and centrifuged at 2500 rpm for 40 min at 20° C. Samples from the filtrate were taken an analyzed for radioactivity in a gamma-counter. The amount of plasma-bound compound was calculated as the fraction of radioactivity measured in the filtrate relative to the corresponding loading solution (set to 100%).
Determination of Albumin-binding Properties. The binding of the radioligands to human plasma proteins was determined by an ultrafiltration assay. […] Three independent experiments were performed in duplicates with both radioligands and the data was fitted to a semi-logarithmic plot (non-linear regression, one-site, specific binding) to obtain the half maximum binding (B50) in GraphPad Prism software (version 7).
The ^177Lu-labeled PSMA ligands (50 MBq/nmol) were diluted in mouse plasma (Rockland, USA) and human plasma (Stiftung Blutspende SRK Aargau-Solothurn, Switzerland), respectively, and incubated for 15 min at room temperature. In addition, the radioligands were diluted in PBS (buffer solution without proteins) as a control experiment. Aliquots of the solutions were loaded onto an ultrafiltration device and centrifuged. The filtered activity was measured with a γ-counter and used for calculating the plasma protein-bound activity (retained on the filter membrane) as the percentage of total added activity. […] Statistical analysis (one-way ANOVA with Bonferroni's multiple comparison post-test) was performed using GraphPad Prism software, version 7. A p-value of <0.05 was considered statistically significant.

[4] = test system: PC-3 PIP/flu tumor-bearing mice; experiment: Biodistribution studies in PC-3 PIP/flu tumor-bearing mice; conditions: for Tumor-to-blood / Tumor-to-kidney / Tumor-to-liver: PC-3 PIP tumor; for AUC PC-3 PIP tumor / AUC blood / AUC kidneys / AUC liver: non-decay-corrected biodistribution data up to 192 h p.i.; for Ratio of AUCs AUCTu-to-AUCBl: tumor to blood; for Ratio of AUCs AUC-Tu-to-AUC-Ki: tumor to kidneys; for Ratio of AUCs AUCTu-to-AUCLi: tumor to liver

## O=C(O)CCC(NC(=O)NC(CCCCNC(=O)C(Cc1ccc2ccccc2c1)NC(=O)C1CCC(CNC(=O)C(CCCCNC(=O)CN2CCN(CC(=O)O)CCN(CC(=O)O)CCN(CC(=O)O)CC2)NC(=O)CC(NC(=O)CC(NC(=O)CCCc2ccc(I)cc2)C(=O)O)C(=O)O)CC1)C(=O)O)C(=O)O (centres unmarked) [^177Lu-PSMA-ALB-05, metal not drawn]
[1]
  plasma protein-bound fraction: 77±2.1%
[2]; 2 h
  cell uptake: 52-57%
  internalized fraction: 18-24%
[2]; 4 h
  cell uptake: 60-63%
  internalized fraction: 20-26%
[3]
  plasma protein-bound fraction: 95±0.6%
[4]; 1 h p.i.
  Tumor-to-blood: 2.31 ± 0.58
  Tumor-to-kidney: 0.79 ± 0.02
  Tumor-to-liver: 8.65 ± 2.21
[4]; 4 h p.i.
  Blood: 10.2 ± 1.98 % IA/g
  Bone: 1.67 ± 0.27 % IA/g
  Heart: 3.82 ± 0.63 % IA/g
  Intestines: 1.33 ± 0.25 % IA/g
  Kidneys: 52.8 ± 7.17 % IA/g
  Liver: 2.96 ± 0.50 % IA/g
  Lung: 7.07 ± 1.44 % IA/g
  Muscle: 1.30 ± 0.23 % IA/g
  PC-3 PIP Tumor: 75.3 ± 15.3 % IA/g
  PC-3 flu Tumor: 2.10 ± 0.20 % IA/g
  Salivary glands: 2.75 ± 0.72 % IA/g
  Spleen: 3.29 ± 0.74 % IA/g
  Stomach: 1.15 ± 0.17 % IA/g
  Tumor-to-blood: 7.43 ± 1.43
  Tumor-to-kidney: 1.42 ± 0.19
  Tumor-to-liver: 25.6 ± 4.58
[4]; 24 h p.i.
  Blood: 1.67 ± 0.29 % IA/g
  Bone: 0.31 ± 0.08 % IA/g
  Heart: 0.65 ± 0.11 % IA/g
  Intestines: 0.28 ± 0.05 % IA/g
  Kidneys: 23.9 ± 4.02 % IA/g
  Liver: 0.82 ± 0.35 % IA/g
  Lung: 1.80 ± 0.78 % IA/g
  Muscle: 0.19 ± 0.06 % IA/g
  PC-3 PIP Tumor: 79.4 ± 11.1 % IA/g
  PC-3 flu Tumor: 0.59 ± 0.10 % IA/g
  Salivary glands: 0.49 ± 0.10 % IA/g
  Spleen: 1.13 ± 0.23 % IA/g
  Stomach: 0.28 ± 0.06 % IA/g
  Tumor-to-blood: 48.2 ± 7.04 and 48 ± 6.4
  Tumor-to-kidney: 3.38 ± 0.58 and 3.4 ± 0.5
  Tumor-to-liver: 106 ± 28.6 and 106 ± 26
[4]; 48 h p.i.
  Blood: 1.66 ± 0.37 % IA/g
  Bone: 0.28 ± 0.05 % IA/g
  Heart: 0.54 ± 0.15 % IA/g
  Intestines: 0.28 ± 0.10 % IA/g
  Kidneys: 12.8 ± 2.62 % IA/g
  Liver: 0.56 ± 0.16 % IA/g
  Lung: 1.48 ± 0.62 % IA/g
  Muscle: 0.20 ± 0.08 % IA/g
  PC-3 PIP Tumor: 60.3 ± 10.7 % IA/g
  PC-3 flu Tumor: 0.57 ± 0.09 % IA/g
  Salivary glands: 0.45 ± 0.10 % IA/g
  Spleen: 0.71 ± 0.23 % IA/g
  Stomach: 0.29 ± 0.08 % IA/g
  Tumor-to-blood: 36.7 ± 1.81 and 38 ± 2.5
  Tumor-to-kidney: 4.72 ± 0.18 and 5.0 ± 0.7
  Tumor-to-liver: 110 ± 12.2 and 100 ± 32
[4]; 96 h p.i.
  Blood: 1.79 ± 0.57 % IA/g
  Bone: 0.28 ± 0.04 % IA/g
  Heart: 0.70 ± 0.21 % IA/g
  Intestines: 0.30 ± 0.11 % IA/g
  Kidneys: 6.89 ± 0.31 % IA/g
  Liver: 0.74 ± 0.14 % IA/g
  Lung: 1.36 ± 0.29 % IA/g
  Muscle: 0.15 ± 0.06 % IA/g
  PC-3 PIP Tumor: 45.0 ± 7.94 % IA/g
  PC-3 flu Tumor: 0.49 ± 0.11 % IA/g
  Salivary glands: 0.46 ± 0.10 % IA/g
  Spleen: 0.64 ± 0.29 % IA/g
  Stomach: 0.24 ± 0.07 % IA/g
  Tumor-to-blood: 27.1 ± 10.0
  Tumor-to-kidney: 6.51 ± 0.98
  Tumor-to-liver: 62.8 ± 18.8
[4]; 144 h p.i.
  Blood: 1.75 ± 0.35 % IA/g
  Bone: 0.25 ± 0.05 % IA/g
  Heart: 0.65 ± 0.17 % IA/g
  Intestines: 0.27 ± 0.05 % IA/g
  Kidneys: 4.28 ± 0.26 % IA/g
  Liver: 0.72 ± 0.13 % IA/g
  Lung: 1.25 ± 0.18 % IA/g
  Muscle: 0.17 ± 0.04 % IA/g
  PC-3 PIP Tumor: 33.9 ± 0.80 % IA/g
  PC-3 flu Tumor: 0.52 ± 0.13 % IA/g
  Salivary glands: 0.46 ± 0.09 % IA/g
  Spleen: 0.56 ± 0.08 % IA/g
  Stomach: 0.23 ± 0.04 % IA/g
  Tumor-to-blood: 19.9 ± 3.88
  Tumor-to-kidney: 7.93 ± 0.30
  Tumor-to-liver: 47.9 ± 8.28
[4]; 192 h p.i.
  Blood: 1.48 ± 0.13 % IA/g
  Bone: 0.26 ± 0.04 % IA/g
  Heart: 0.59 ± 0.05 % IA/g
  Intestines: 0.24 ± 0.04 % IA/g
  Kidneys: 2.70 ± 0.36 % IA/g
  Liver: 0.84 ± 0.06 % IA/g
  Lung: 1.22 ± 0.26 % IA/g
  Muscle: 0.14 ± 0.01 % IA/g
  PC-3 PIP Tumor: 27.9 ± 3.24 % IA/g
  PC-3 flu Tumor: 0.45 ± 0.06 % IA/g
  Salivary glands: 0.37 ± 0.04 % IA/g
  Spleen: 0.55 ± 0.10 % IA/g
  Stomach: 0.16 ± 0.04 % IA/g
  Tumor-to-blood: 19.0 ± 2.97
  Tumor-to-kidney: 10.4 ± 0.25
  Tumor-to-liver: 33.4 ± 1.64
[4]
  AUC PC-3 PIP tumor: 6741 ± 421 % IA/g · h
  AUC blood: 387 ± 32 % IA/g · h
  AUC kidneys: 1837 ± 112 % IA/g · h
  AUC liver: 131 ± 11 % IA/g · h
  Ratio of AUCs AUCTu-to-AUCBl: 17
  Ratio of AUCs AUC-Tu-to-AUC-Ki: 3.7
  Ratio of AUCs AUCTu-to-AUCLi: 52

## O=C(O)CCC(NC(=O)NC(CCCCNC(=O)C(Cc1ccc2ccccc2c1)NC(=O)C1CCC(CNC(=O)C(CCCCNC(=O)CN2CCN(CC(=O)O)CCN(CC(=O)O)CCN(CC(=O)O)CC2)NC(=O)CC(NC(=O)CC(NC(=O)CC(NC(=O)CCCc2ccc(I)cc2)C(=O)O)C(=O)O)C(=O)O)CC1)C(=O)O)C(=O)O (centres unmarked) [^177Lu-PSMA-ALB-07, metal not drawn]
[1]
  plasma protein-bound fraction: 64±2.1%
[2]; 2 h
  cell uptake: 52-57%
  internalized fraction: 18-24%
[2]; 4 h
  cell uptake: 60-63%
  internalized fraction: 20-26%
[3]
  plasma protein-bound fraction: 95±0.1%
[4]; 4 h p.i.
  Blood: 6.67 ± 2.04 % IA/g
  Bone: 1.30 ± 0.27 % IA/g
  Heart: 2.43 ± 0.78 % IA/g
  Intestines: 1.27 ± 0.45 % IA/g
  Kidneys: 67.0 ± 9.50 % IA/g
  Liver: 1.94 ± 1.02 % IA/g
  Lung: 4.67 ± 0.92 % IA/g
  Muscle: 0.78 ± 0.22 % IA/g
  PC-3 PIP Tumor: 63.5 ± 27.4 % IA/g
  PC-3 flu Tumor: 1.80 ± 0.27 % IA/g
  Salivary glands: 2.09 ± 0.50 % IA/g
  Spleen: 3.41 ± 1.46 % IA/g
  Stomach: 1.09 ± 0.30 % IA/g
  Tumor-to-blood: 9327 ± 1.75
  Tumor-to-kidney: 0.88 ± 0.28
  Tumor-to-liver: 33.6 ± 6.56
[4]; 24 h p.i.
  Blood: 0.79 ± 0.08 % IA/g
  Bone: 0.31 ± 0.10 % IA/g
  Heart: 0.40 ± 0.00 % IA/g
  Intestines: 0.20 ± 0.03 % IA/g
  Kidneys: 51.9 ± 6.34 % IA/g
  Liver: 0.52 ± 0.04 % IA/g
  Lung: 0.73 ± 0.06 % IA/g
  Muscle: 0.13 ± 0.01 % IA/g
  PC-3 PIP Tumor: 84.6 ± 14.2 % IA/g
  PC-3 flu Tumor: 0.80 ± 0.17 % IA/g
  Salivary glands: 0.43 ± 0.04 % IA/g
  Spleen: 1.14 ± 0.04 % IA/g
  Stomach: 0.18 ± 0.06 % IA/g
  Tumor-to-blood: 107 ± 12.2 and 107 ± 10
  Tumor-to-kidney: 1.64 ± 0.29 and 1.6 ± 0.2
  Tumor-to-liver: 162 ± 17.3 and 162 ± 14
[4]; 48 h p.i.
  Tumor-to-blood: 154 ± 7
  Tumor-to-kidney: 2.3 ± 0.1
  Tumor-to-liver: 131 ± 13
[4]; 72 h p.i.
  Blood: 0.40 ± 0.06 % IA/g
  Bone: 0.31 ± 0.06 % IA/g
  Heart: 0.21 ± 0.01 % IA/g
  Intestines: 0.10 ± 0.01 % IA/g
  Kidneys: 26.0 ± 1.58 % IA/g
  Liver: 0.44 ± 0.08 % IA/g
  Lung: 0.43 ± 0.02 % IA/g
  Muscle: 0.08 ± 0.01 % IA/g
  PC-3 PIP Tumor: 62.6 ± 6.35 % IA/g
  PC-3 flu Tumor: 0.43 ± 0.04 % IA/g
  Salivary glands: 0.21 ± 0.01 % IA/g
  Spleen: 0.49 ± 0.03 % IA/g
  Stomach: 0.10 ± 0.01 % IA/g
  Tumor-to-blood: 160 ± 37.0
  Tumor-to-kidney: 2.41 ± 0.18
  Tumor-to-liver: 147 ± 38.4
[4]
  AUC PC-3 PIP tumor: 7007 ± 459 % IA/g · h
  AUC blood: 180 ± 7.2 % IA/g · h
  AUC kidneys: 3395 ± 201 % IA/g · h
  AUC liver: 72 ± 3.6 % IA/g · h
  Ratio of AUCs AUCTu-to-AUCBl: 39
  Ratio of AUCs AUC-Tu-to-AUC-Ki: 2.1
  Ratio of AUCs AUCTu-to-AUCLi: 97
